Data as given in ChEMBL document CHEMBL2406944, “Development of stapled short helical peptides capable of inhibiting vitamin D receptor (VDR)-coactivator interactions” (Bioorg Med Chem Lett, 2013).
Starred links: 1 amine or outer side, 2 acyl side, 3 side chain; linkers in the order of their positions; H or OH if unused. Positions of bridges follow the written chain, without caps; N, C: chain ends. Non-standard residues stand in square brackets, D forms with d. Residues, ends and D or L forms follow the SMILES beside them. hSer = N[C@@H](CCO)C(=O)O; X1 = C(CC[*:2])C[*:1]; Aib = CC(C)(N)C(=O)O

Molecular target: T1, Vitamin D3 receptor (Homo sapiens, UniProt P11473)
T1 sequence (P11473 whole entry): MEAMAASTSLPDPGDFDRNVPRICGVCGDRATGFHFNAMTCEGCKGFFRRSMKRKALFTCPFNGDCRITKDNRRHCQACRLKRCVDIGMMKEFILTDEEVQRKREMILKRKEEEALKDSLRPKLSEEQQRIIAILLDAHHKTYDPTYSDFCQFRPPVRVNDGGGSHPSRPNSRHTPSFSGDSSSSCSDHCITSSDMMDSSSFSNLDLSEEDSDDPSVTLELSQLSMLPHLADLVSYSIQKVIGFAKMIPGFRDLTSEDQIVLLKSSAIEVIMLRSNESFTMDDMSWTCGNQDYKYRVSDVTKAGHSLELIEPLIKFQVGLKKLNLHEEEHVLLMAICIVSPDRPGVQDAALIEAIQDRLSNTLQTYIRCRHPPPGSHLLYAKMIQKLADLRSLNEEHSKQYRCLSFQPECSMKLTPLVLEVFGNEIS
Experiment: Inhibition of human VDR-coactivator interaction

| Structure (SMILES) | IC50 [µM] |
| --- | --- |
| CC(C)C[C@@H]1NC(=O)[C@H](CC(C)C)NC(=O)C(C)(C)NC(=O)[C@H](NC(=O)[C@H](CC(C)C)NC(=O)[C@@H](N)CC(C)C)COCCCCOC[C@H](C(=O)O)NC1=O | 600 |
| CC(C)C[C@@H]1NC(=O)[C@H](CC(C)C)NC(=O)C(C)(C)NC(=O)[C@@H](NC(=O)[C@H](CC(C)C)NC(=O)[C@@H](N)CC(C)C)COCCCCOC[C@@H](C(=O)O)NC1=O | 610 |
| CC(C)C[C@@H]1NC(=O)[C@H](CC(C)C)NC(=O)C(C)(C)NC(=O)[C@H](NC(=O)[C@H](CC(C)C)NC(=O)[C@@H](N)CC(C)C)COCCCCOC[C@@H](C(=O)O)NC1=O | 610 |
| CC(C)C[C@@H]1NC(=O)[C@H](CC(C)C)NC(=O)C(C)(C)NC(=O)[C@@H](NC(=O)[C@H](CC(C)C)NC(=O)[C@@H](N)CC(C)C)CCOCCCCOC[C@@H](C(=O)O)NC1=O (H-LL[hSer][Aib]LLS-OH; linker 3-7 via X1) | 520 |
| CC(C)C[C@@H]1NC(=O)[C@H](CC(C)C)NC(=O)C(C)(C)NC(=O)[C@@H](NC(=O)[C@H](CC(C)C)NC(=O)[C@@H](N)CC(C)C)CCOCCCCOCC[C@@H](C(=O)O)NC1=O (H-LL[hSer][Aib]LL[hSer]-OH; linker 3-7 via X1) | 220 |
| CC(C)C[C@@H]1NC(=O)[C@H](CC(C)C)NC(=O)C(C)(C)NC(=O)[C@@H](NC(=O)[C@H](CC(C)C)NC(=O)[C@@H](N)CC(C)C)COCCCCOC[C@H](C(=O)O)NC1=O | 430 |
| CC(C)C[C@@H]1NC(=O)[C@H](CC(C)C)NC(=O)C(C)(C)NC(=O)[C@@H](NC(=O)[C@H](CC(C)C)NC(=O)[C@@H](N)CC(C)C)CCOCC(O)C(O)COCC[C@@H](C(=O)O)NC1=O (mixture of isomers) | 3.2 |
